Literature values in patent US8193226B2, “Candesartan cilexetil” (Zhejiang Huahai Pharmaceutical Co., Ltd., priority 2007, dated 2012).
Like-named read-outs stand apart in the source and are kept apart here.

How the values were obtained:
[1] = not given; remark: listed apart in the source
[2] = not given; remark: listed apart in the source

With `CCOc1nc2cccc(C(=O)OC(C)OC(=O)OC3CCCCC3)c2n1Cc1ccc(-c2ccccc2-c2nn[nH]n2)cc1` (stereo not drawn) [candesartan cilexetil] as the compound, how does the bioavailability (solution) read?
Its bioavailability is 40%.

What about the bioavailability (tablet) of the same compound?
Its bioavailability is 15%.

And the “stability when processed into a tablet” value ([1]; in the presence of other pharmaceutically acceptable additives, or at granulation or tableting)?
The value was “tends to decompose”.

What about the “stability of the drug as such” value ([1]; isolated form, exposed to increased temperatures, humidity and light) of the same compound?
The value was “stable”.

And the “solubility in alcoholic solvents” value ([2]; alcoholic solvents)?
Its value is “readily soluble”.

And the solubility in water ([2]; water)?
The solubility in water was “practically insoluble”.
